Values after ≈ are worked out from the molar mass of the structure shown.
Columns and labels:
[1] = Drug level in subcutaneous interstitial fluid at burnt site of patient at 1 g, iv administered as 5 mins infusion measured after 240 min; assay type: ADME, organism-based; conditions: human, read-out: Drug uptake
[2] = Drug level in subcutaneous interstitial fluid of healthy human at 1 g, iv administered as 5 mins infusion measured after 240 min; assay type: ADME, organism-based; conditions: read-out: Drug uptake
Plasma [3] = assay: Fraction unbound in burn patient at 1g, iv administered as 5 mins infusion by microdialysis; assay type: ADME, organism-based; conditions: human, in vivo
[4] = Time during which concentration exceeded the 5 X MIC for Staphylococcus aureus infected burn patient at nonburnt tissue site at 1g, iv administered as 5 mins infusion; assay type: functional
[5] = T>MIC in Staphylococcus aureus infected burn patient at burnt tissue site at 1g, iv administered as 5 mins infusion; assay type: functional
[6] = Drug level in subcutaneous interstitial fluid at nonburnt site of patient at 1 g, iv administered as 5 mins infusion measured after 240 min; assay type: ADME, organism-based; conditions: human, read-out: Drug uptake
[7] = Time during which concentration exceeded the 5 X MIC for Staphylococcus aureus in healthy human at 1g, iv administered as 5 mins infusion; assay type: functional
Staphylococcus aureus = assay: Antimicrobial activity against Staphylococcus aureus; assay type: functional
[8] = Plasma protein binding in healthy human at 1g, iv administered as 5 mins infusion; assay type: ADME, organism-based; conditions: read-out: PPB (converted)
[9] = T>MIC in healthy human at 1g, iv administered as 5 mins infusion; assay type: functional
[10] = T>MIC in Staphylococcus aureus infected burn patient at nonburnt tissue site at 1g, iv administered as 5 mins infusion; assay type: functional
[11] = Plasma protein binding in burn patient at 1g, iv administered as 5 mins infusion; assay type: ADME, organism-based; conditions: human, read-out: PPB (converted)
[12] = Time during which concentration exceeded the 5 X MIC for Staphylococcus aureus infected burn patient at burnt tissue site at 1g, iv administered as 5 mins infusion; assay type: functional
[13] = Fraction unbound in healthy human interstitial fluid at 1g, iv administered as 5 mins infusion by microdialysis; assay type: ADME, organism-based; conditions: in vivo
Plasma [14] = assay: Fraction unbound in healthy human plasma at 1g, iv administered as 5 mins infusion by microdialysis; assay type: ADME, organism-based; conditions: in vivo
[15] = Fraction unbound in burn patient interstitial fluid at burn site at 1g, iv administered as 5 mins infusion by microdialysis; assay type: ADME, organism-based; conditions: human, in vivo
[16] = Fraction unbound in burn patient interstitial fluid at nonburn site at 1g, iv administered as 5 mins infusion by microdialysis; assay type: ADME, organism-based; conditions: human, in vivo

CC(=O)OCC1=C(C(=O)O)N2C(=O)[C@@H](NC(=O)Cc3cccs3)[C@H]2SC1 [CEPHALOTHIN]
concentration at 4 h [1]: 2840 ng/mL | concentration at 4 h [2]: 540 ng/mL | Cp (Plasma [3]): 38700 ng/mL | T [4]: 219 min | T>MIC [5]: 285 min | concentration at 4 h [6]: 3060 ng/mL | T [7]: 96 min | MIC (Staphylococcus aureus): 0.2 µg/mL (≈ 0.504 µM) | fraction unbound at 5 min [8]: 0.292 | T>MIC [9]: 160 min | T>MIC [10]: 336 min | fraction unbound at 5 min [11]: 0.42 | T [12]: 191 min | Cp [13]: 8600 ng/mL | Cp (Plasma [14]): 17600 ng/mL | Cp [15]: 14500 ng/mL | Cp [16]: 8900 ng/mL

Source: ChEMBL document CHEMBL1649118, “Tissue accumulation of cephalothin in burns: a comparative study by microdialysis of subcutaneous interstitial fluid cephalothin concentrations in burn patients and healthy volunteers” (Antimicrob Agents Chemother, 2009)
